# From publication PMC6083370, “Influence of OATPs on Hepatic Disposition of Erlotinib Measured With Positron Emission Tomography” (Clinical Pharmacology and Therapeutics, 2017)
# Several values for one entry are separate records, joined by “and”; a condition that tells them apart may be missing. Equal values may be shown once. Read-outs that look alike come from different tables or passages of the source.
# Experiments:
# [1] = Plasma pharmacokinetics of unlabeled erlotinib after 300 mg oral dose (HPLC-UV); type: in vivo, human
# Procedure: One female and five male healthy volunteers (mean age: 27 ± 6 years, mean weight: 79 ± 7 kg) were enrolled in the study. […] Radioactivity in the upper abdominal region was measured over 90 min by employing a consecutive frame sequence of 1 × 15, 3 × 5, 3 × 10, 2 × 30, 3 × 60, 2 × 150, and 16 × 300 sec. […] For both PET scans, subjects were asked to fast for at least 6 h before radiotracer injection. Approximately 3 h before start of the second PET scan, an oral dose of 300 mg erlotinib (Tarceva, Roche Pharma, Nutley, NJ; two 150‐mg tablets) was administered. […] Blood samples were centrifuged to obtain plasma, which was kept at −80°C until analysis of erlotinib concentrations.
# Aliquots of blood and plasma were measured for radioactivity in a gamma‐counter, which was cross‐calibrated with the PET camera. […] The concentration of unlabeled erlotinib in plasma was determined by high‐performance liquid chromatography with ultraviolet detection (Supplementary Methods). Pharmacokinetic parameters of erlotinib in plasma were determined with the Kinetica 2000 software package, v. 3.0 (InnaPhase).
# The concentration of unlabeled erlotinib in plasma was determined by high-performance liquid chromatography (HPLC) using a Dionex UltiMate 3000 system (Dionex Corp., Sunnyvale, USA) with ultraviolet (UV) detection at 331 nm. After the addition of 600 µL ice-cold methanol to 200 µL of plasma, the samples were centrifuged (13,000 g for 5 min) and 80 µL of clear supernatant was injected onto a Hypersil BDS-C18 column (5 µm, 250 x 4.6 mm I.D., Thermo Fisher Scientific, Inc, Waltham, USA), preceded by a Hypersil BDS-C18 pre-column (5 µm, 10 x 4.6 mm I.D.) and kept at 40°C. The mobile phase consisted of a continuous gradient mixed from aqueous ammonium acetate buffer (10 mM, pH = 5.0) (solvent A) and acetonitrile (solvent B) at a flow rate of 1.0 mL/min.
# OATP1B3 = conditions: cited from earlier work
# OATP2B1 = conditions: read-out: IC50 for OATP2B1 inhibition; cited from earlier work
# OATP1B1 (SLCO1B1) = biological target: T1, OATP1B1 (SLCO1B1) (Homo sapiens, UniProt Q9Y6L6); conditions: erlotinib 1 μM, cyclosporine A 10 μM, rifampicin 100 μM; 5 min
# T1 sequence (Q9Y6L6 1-691): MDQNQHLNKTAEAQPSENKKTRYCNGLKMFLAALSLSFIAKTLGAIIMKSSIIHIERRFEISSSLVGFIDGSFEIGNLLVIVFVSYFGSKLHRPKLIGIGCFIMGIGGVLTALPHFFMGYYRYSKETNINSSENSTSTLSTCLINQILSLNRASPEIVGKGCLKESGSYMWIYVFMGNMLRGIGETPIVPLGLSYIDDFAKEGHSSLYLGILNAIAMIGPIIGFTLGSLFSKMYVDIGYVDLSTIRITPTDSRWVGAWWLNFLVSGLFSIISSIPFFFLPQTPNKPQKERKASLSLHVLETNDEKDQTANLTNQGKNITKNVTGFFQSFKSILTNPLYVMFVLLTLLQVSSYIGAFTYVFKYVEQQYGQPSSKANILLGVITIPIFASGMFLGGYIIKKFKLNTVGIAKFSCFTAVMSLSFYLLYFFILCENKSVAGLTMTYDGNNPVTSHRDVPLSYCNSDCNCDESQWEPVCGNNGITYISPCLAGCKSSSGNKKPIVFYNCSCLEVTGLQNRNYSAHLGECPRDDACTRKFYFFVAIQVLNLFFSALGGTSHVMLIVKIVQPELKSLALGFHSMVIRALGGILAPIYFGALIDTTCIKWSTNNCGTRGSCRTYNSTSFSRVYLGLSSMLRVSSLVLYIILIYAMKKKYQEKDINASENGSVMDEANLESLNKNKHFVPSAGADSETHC
# Procedure: A431 cells transfected with the empty vector were used as a negative control. All cell lines were cultured in Dulbecco's modified eagle medium supplemented with 10% fetal bovine serum, 2 mM L-glutamine, 100 units/mL penicillin and 100 µg/mL streptomycin. […] On the day of the experiment, growth medium was aspired and cells were washed with pre-warmed transport buffer (Hank's balanced salt solution supplemented with 10 mM N-2-hydroxyethylpiperazine-N-2-ethane sulfonic acid). […] Then the drug solutions were removed and cells were washed with pre-warmed transport buffer. […] For time dependency experiments, pre-warmed transport buffer was added and cells were incubated for 30 min. […] In all experiments, cell count was determined on separate 24-well tissue culture plates before or after each experiment. […] Each inhibition experiment was performed 2 times with 3 technical replicates each and radioactivity in cells was corrected for radioactive decay, normalized to 10^6 cells and expressed as percent of vector control (% control). The time dependency experiment was performed once with 3 technical replicates and radioactivity in cells was corrected for radioactive decay and expressed as percent of applied dose per 10^6 cells (%AD/10^6 cells). The concentration dependency experiment was performed once with 3 technical replicates and radioactivity in cells was corrected for radioactive decay. […]
# [2] = system: P‐glycoprotein (Pgp/ABCB1); design: method as in PMID 20304939, PMID 21088257; conditions: cited from earlier work
# [3] = Tolerability of study medication in healthy volunteers; type: in vivo, human; conditions: microdose (<10 μg) i.v. and 300 mg oral
# Procedure: One female and five male healthy volunteers (mean age: 27 ± 6 years, mean weight: 79 ± 7 kg) were enrolled in the study. […] Radioactivity in the upper abdominal region was measured over 90 min by employing a consecutive frame sequence of 1 × 15, 3 × 5, 3 × 10, 2 × 30, 3 × 60, 2 × 150, and 16 × 300 sec. In parallel to PET imaging, serial blood samples were drawn from the radial artery for the first 2.5 min, followed by samples at 3.5, 5, 10, 20, 30, 40, 60, and 80 min after radiotracer injection. For both PET scans, subjects were asked to fast for at least 6 h before radiotracer injection. Approximately 3 h before start of the second PET scan, an oral dose of 300 mg erlotinib (Tarceva, Roche Pharma, Nutley, NJ; two 150‐mg tablets) was administered. Ten blood samples were collected at baseline and hourly for 8 h and at ∼21 h after erlotinib intake. Blood samples were centrifuged to obtain plasma, which was kept at −80°C until analysis of erlotinib concentrations.
# MRP4 = system: MRP4; design: method as in PMID 21088257; conditions: cited from earlier work
# OAT2 (SLC22A7) = system: OAT2 (SLC22A7); design: method as in PMID 21088257; conditions: cited from earlier work
# [4] = 3 h after oral dosing, individual subjects
# [5] = 4 h after oral dosing, individual subjects
# [6] = individual subjects, oral 300 mg
compound,measurement,setting,value
C#Cc1cccc(Nc2ncnc3cc(OCCOC)c(OCCOC)cc23)c1 [erlotinib],"CPET, plasma concentration at time of the PET scan",[1]; [4],3.30 µM and 4.12 µM and 4.73 µM and 4.91 µM and 2.66 µM and 4.61 µM
same,"CPET,unbound",[1]; [4],"0.12 µM and 0.20 µM and 0.10, 0.10 µM and 0.28 µM"
same,"CPET, plasma concentration at time of the PET scan",[1]; [5],3.33 µM and 4.50 µM and 4.74 µM and 5.63 µM and 2.71 µM and 4.92 µM
same,"CPET,unbound",[1]; [5],"0.13 µM and 0.23 µM and 0.10, 0.10 µM and 0.30 µM"
same,Cmax,"[1]; both sexes, human, plasma, po, 300 mg, oral 300 mg, mean ± SD, read-out: Maximum plasma concentration (C max), mean",4.6 ± 1.3 µM
same,AUC0-∞,[1]; [6],68.1 µM·h and 94.0 µM·h and 72.0 µM·h and 102.8 µM·h and 36.6 µM·h and 187.8 µM·h
same,"T1/2, terminal elimination half-life",[1]; [6],14.1 h and 12.5 h and 9.2 h and 11.3 h and 5.4 h and 28.7 h
same,Tmax,[1]; [6],2 h and 6 h and 4 h
same,Cmax,"[1]; individual subjects, oral 300 mg, read-out: Cmax",3.51 µM and 5.03 µM and 4.74 µM and 6.43 µM and 2.83 µM and 4.92 µM
same,plasma concentration at the time of the PET scan,[1]; mean of values at 3 h and 4 h after oral intake of 300 mg,4.2 ± 1.0 µM
same,unbound plasma concentration at the time of the PET scan,"[1]; mean, oral 300 mg",0.18 µM
same,"time of C max, median",[1]; oral 300 mg,5 h
same,"time of C max, range",[1]; oral 300 mg,2 to 6 h
same,transport by OATP1B3,OATP1B3,not to be transported
same,IC50,OATP2B1,0.03 µM
same,effect on [^11C]erlotinib uptake in OATP1B1 overexpressing cells,OATP1B1 (SLCO1B1),no effect
same,substrate of Pgp,[2],substrate
same,"tolerability, adverse events",[3],well tolerated by all subjects with no occurrence of adverse events
same,transport by MRP4,MRP4,not to be transported
same,substrate of OAT2,OAT2 (SLC22A7),not a substrate
